What was measured:
pre-miR-21 WT = assay: Microscale thermophoresis (MST) binding to pre-miR-21 WT
Experimental: Microscale Thermophoresis (MST) Binding Measurements. MST fluorescent measurements were performed on a Monolith NT.115 system (NanoTemper Technologies) using the fluorescence of a miR-21 hairpin (A+U Bulge): (5′ Cy5-[…]-3′) (SEQ ID NO: 1) or a miR-21 base paired control (5′ Cy5-[…]-3′) (SEQ ID NO: 2) which were purchased from IDT with RNase-free HPLC purification and used without further purification. The RNA (5 nM) was diluted in 1×MST Buffer (8 mM Na2HPO4, 190 mM NaCl, 1 mM EDTA, and 0.05% (v/v) Tween-20) and folded by heating at 60° C. for 5 min, and slowly cooling to room temperature. Compounds 1 and 2 were diluted in 1×MST Buffer, followed by 1:3 dilutions in 1×MST Buffer containing 5 nM RNA. […] Fluorescence measurements (Ex: 605-645 nm, Em: 680-685 nm) were performed at 10% LED and 80% MST power, with a Laser-On time of 30 s and Laser-Off time of 5 s. The data were analyzed by thermophoresis analysis and fitted by the quadratic binding equation in MST analysis software (NanoTemper Technologies). Dissociation constants were then determined by curve fitting using a single-site model. Normalized MST signal was calculated by normalizing the fluorescent signals using the MST data of 1 binding to pre-miR-21 WT with the lowest signal as 0 and the highest fluorescent signal as 1.

MDA-MB-231-Luc cells = assay: In vivo MDA-MB-231 lung metastasis model in NOD/SCID mice; parameters: species or system mouse; details: 10 mg/kg; for lung nodules / metastasis to lung: 6 weeks
Experimental: FIGS. 46A-46C. In vivo mouse weights and Scrambled FISH staining of lung nodules with 5 treatment. […] Treatment of mice with 10 mg/kg of 5 started after 6 days of tumor cell injection. […] Dashed line indicates normalized signal intensity in vehicle samples.
Intravenous delivery of MDA-MB-231 cells to mice is a model of breast cancer metastasis and metastatic behavior can be affected by inhibition of miR-21, S. Yang, J. J. Zhang, X.-Y. Huang, Mouse models for tumor metastasis. Methods Mol. Biol. 928, 221-228 (2012).

[1] = system: Ifng, OAS1, RIG-I, MDA5 mRNAs; assay: RT-qPCR of antiviral innate immune response mRNAs in MDA-MB-231 cells; type: cell-based, human
Experimental: Cell culture compound treatment and transfection. For treatment with compounds, stocks in DMSO or water were diluted in growth media and added to cells for 24-72 h. For transfection of plasmid DNA to overexpress the miR-21 hairpin precursor in pcDNA3.1 (Addgene 21114) or pcDNA3-RNaseL (R. H. Silverman, Cleveland Clinic^24) in 24-well plates, Lipofectamine 2000 was used according to the manufacturer's protocol. After transfection, the medium was removed and replaced with growth medium containing compound prepared as described above. For transfection of a control (Santa Cruz Biotechnology: sc-37007) or RNase L targeting siRNA (Santa Cruz Biotechnology: sc-45965), Lipofectamine RNAiMAX Reagent was used for transfection of oligonucleotides, including 2′-5′ A4, according to the manufacturer's protocol.

RNase L = molecular target: T1, RNase L (Homo sapiens, UniProt Q05823); assay: In vitro RNase L oligomerization; type: biochemical; parameters: GST; made in house
T1 sequence (Q05823 1-741): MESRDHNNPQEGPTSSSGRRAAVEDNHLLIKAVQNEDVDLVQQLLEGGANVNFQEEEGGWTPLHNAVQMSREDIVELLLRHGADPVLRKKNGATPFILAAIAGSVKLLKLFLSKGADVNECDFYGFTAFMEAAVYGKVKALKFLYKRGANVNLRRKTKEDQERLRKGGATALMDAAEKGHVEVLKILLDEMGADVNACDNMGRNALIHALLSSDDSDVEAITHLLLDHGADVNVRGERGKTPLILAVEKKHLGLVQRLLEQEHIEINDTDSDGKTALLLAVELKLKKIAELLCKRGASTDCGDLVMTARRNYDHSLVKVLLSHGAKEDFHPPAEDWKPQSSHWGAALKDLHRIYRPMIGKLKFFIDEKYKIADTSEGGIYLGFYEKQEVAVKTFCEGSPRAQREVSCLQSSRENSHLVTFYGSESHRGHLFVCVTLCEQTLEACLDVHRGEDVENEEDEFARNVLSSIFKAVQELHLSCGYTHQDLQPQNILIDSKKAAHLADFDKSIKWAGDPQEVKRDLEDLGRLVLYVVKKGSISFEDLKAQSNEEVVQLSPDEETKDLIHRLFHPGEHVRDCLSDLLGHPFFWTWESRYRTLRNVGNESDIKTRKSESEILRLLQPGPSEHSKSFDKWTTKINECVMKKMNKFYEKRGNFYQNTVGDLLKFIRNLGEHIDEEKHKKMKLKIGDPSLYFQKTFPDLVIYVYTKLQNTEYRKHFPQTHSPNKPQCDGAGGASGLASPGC
Experimental: In Vitro RNase L Oligomerization. An aliquot of RNase L (3 μM) in 1×RNase L Buffer was supplemented with 10 mM MgCl2, fresh 7 mM β-mercaptoethanol, and 50 μM of ATP. RNase L oligomerization was performed as previously described^13 using dilutions of 2′-5′ A4 or compounds (2 or 5) prepared in 1×RNase L Buffer. A Western blot (described below) was run to resolve monomeric and oligomeric RNase L populations using RNase L primary antibody (1:5000 dilution; Cell Signaling Technology: D4B4J) overnight at 4° C. in 1×TBST containing 5% nonfat dry milk and 1:10000 anti-rabbit IgG horseradish peroxidase secondary antibody conjugate (Cell Signaling Technology: 7074S) in 1×TBST containing 5% nonfat dry milk for 2 h at room temperature.

Row | Compound | enhancement of pre-miR-21 binding over the compound of Formula 1 (pre-miR-21 WT) | weight changes compared to vehicle-treated mice (MDA-MB-231-Luc cells; over 42 days, NOD/SCID mice) | PDCD4 in lung nodule tissue sections (MDA-MB-231-Luc cells; q.o.d.) | hematoxylin and eosin (HE) staining of lung tissue (MDA-MB-231-Luc cells; q.o.d.) | mature miR-21 in lung nodule tissue (FISH) (MDA-MB-231-Luc cells; q.o.d.) | pre-miR-21 in lung nodule tissue (FISH) (MDA-MB-231-Luc cells; q.o.d.) | lung nodules / metastasis to lung (MDA-MB-231-Luc cells; q.o.d.) | lung nodules / metastasis to lung (MDA-MB-231-Luc cells; q.o.d., listed as Formula 5) | PDCD4 in lung nodule tissue sections (MDA-MB-231-Luc cells; q.o.d., listed as Formula 5) | mature miR-21 in lung nodule tissue (FISH) (MDA-MB-231-Luc cells; q.o.d., listed as Formula 5) | pre-miR-21 in lung nodule tissue (FISH) (MDA-MB-231-Luc cells; q.o.d., listed as Formula 5) | tolerability (MDA-MB-231-Luc cells; intraperitoneal injection, q.o.d.) | levels of mRNAs associated with the antiviral innate immune response ([1]; 5 50 nM, 2′-5′ A4 500 nM transfected) | modulation of innate immunity biomarkers (RT-qPCR and ELISA) ([1]; MDA-MB-231) | oligomerization of RNase L (RNase L)
1 | CCCN(CC(=O)N(CCC)CC(=O)N(CCC)CC(=O)N(CC(N)=O)Cc1cn(CCCNC(=O)CCCOc2ccc(-c3nc4cc(-c5ccc(N6CCN(C)CC6)cc5)ccc4[nH]3)cc2)nn1)C(=O)CNCc1cn(CCCNC(=O)CCCOc2ccc(-c3nc4cc(-c5ccc(N6CCN(C)CC6)cc5)ccc4[nH]3)cc2)nn1 [Compound 2] | 20 fold | – | – | – | – | – | – | – | – | – | – | – | – | – | –
2 | CCCN(CC(=O)N(CCC)CC(=O)N(CCC)CC(=O)N(CC(=O)NCCOCCOCCOCCOc1ccc(C=C2SC(Nc3ccccc3)=C(C(=O)OCC)C2=O)cc1O)Cc1cn(CCCNC(=O)CCCOc2ccc(-c3nc4cc(-c5ccc(N6CCN(C)CC6)cc5)ccc4[nH]3)cc2)nn1)C(=O)CN(Cc1cn(CCCNC(=O)CCCOc2ccc(-c3nc4cc(-c5ccc(N6CCN(C)CC6)cc5)ccc4[nH]3)cc2)nn1)C(C)=O [Compound 5] | – | did not cause significant weight changes | increased PDCD4 levels | decreased hematoxylin and eosin (HE) staining | decreased mature miR-21 | decreased | decreased lung nodules | inhibited breast cancer metastasis to lung | increase in PDCD4 protein expression | diminished | diminished | well tolerated | No upregulation | No significant changes were observed | oligomerization of RNase L
